One substance from patent US20100310420A1, “SENSORS” (THE TRUSTEES OF PRINCETON UNIVERSITY, priority 2003, published 2010) can be followed below.

The subject of assay [1] is wild type aspartate responsive control cells. The experiment in a line: Swarming of wild type control cells grown with methyl-D-aspartate. Conditions: grown in the presence vs absence of methyl-D-aspartate. The assay is classed as cell-based, E. coli. The protocol:
(§1) eJSmcp1[pJStari1, pJSxcmcp1] is grown in the absence and in the presence of methyl-D-aspartate.

For assay [2], the system named is eJSmcp1[pJStari1, pJSxcmcp1]. The experiment in a line: Swarming of eJSmcp1[pJStari1, pJSxcmcp1] grown with methyl-D-aspartate. The assay is classed as cell-based, E. coli. Conditions: grown in the presence vs absence of methyl-D-aspartate; Tar-expressing transformed strain. The protocol: as §1

As for methyl-D-aspartate, the Swarming result is on record as “same results are seen” in assay [1] and “Swarming is seen in the presence of the aspartate but not in its absence” in assay [2].
